molecular target: T1, GCS (Canis lupus familiaris, UniProt A0A8I3MXG6); experiment: Assay 1: GCS Enzymatic Assay (MDCK cell lysate, C6-NBD-Ceramide, LC/MS); type: biochemical, canine; conditions: Table 2; data without asterisk; read-out: IC50 (nM) generated from Assay 1
T1 sequence (A0A8I3MXG6 1-394): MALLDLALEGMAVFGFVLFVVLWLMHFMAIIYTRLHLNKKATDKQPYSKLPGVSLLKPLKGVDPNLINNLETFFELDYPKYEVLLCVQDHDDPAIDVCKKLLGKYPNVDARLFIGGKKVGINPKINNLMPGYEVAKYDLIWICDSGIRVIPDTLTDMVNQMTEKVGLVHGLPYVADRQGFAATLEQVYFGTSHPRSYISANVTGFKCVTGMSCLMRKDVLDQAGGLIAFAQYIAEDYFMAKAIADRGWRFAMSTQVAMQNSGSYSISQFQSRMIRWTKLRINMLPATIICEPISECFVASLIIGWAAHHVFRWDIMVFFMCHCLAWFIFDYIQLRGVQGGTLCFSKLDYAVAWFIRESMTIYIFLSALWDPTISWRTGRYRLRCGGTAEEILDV
Method in brief: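 LC/MS/MS measurement of glucosylceramide and NBD-ceramide after a 1 h, 37 °C reaction with 100 μM UDP-glucose and 10 μM C6-NBD-ceramide gave IC50s or percent inhibition.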

Row | Compound | IC50 [nM]
1 | Cc1nn(C)c2cc(-c3ccc(C(=O)C(=O)N[C@H](CN4CCCC4)[C@H](O)c4ccc(OC5CC5)c(Cl)c4)cc3)ccc12 [Example 340, N-((1R,2R)-1-(3-chloro-4-cyclopropoxyphenyl)-1-hydroxy-3-(pyrrolidin-1-yl)propan-2-yl)-2-(4-(1,3-dimethyl-1H-indazol-6-yl)phenyl)-2-oxoacetamide] | < 50
2 | Cc1nn(C)c2cc(-c3ccc(C(=O)C(=O)N[C@H](CN4CCCC4)[C@H](O)c4cc(F)c5c(c4)OCCO5)cc3)ccc12 [Example 341, 2-(4-(1,3-dimethyl-1H-indazol-6-yl)phenyl)-N-((1R,2R)-1-(8-fluoro-2,3-dihydrobenzo[b][1,4]dioxin-6-yl)-1-hydroxy-3-(pyrrolidin-1-yl)propan-2-yl)-2-oxoacetamide] | < 50
3 | Cc1c2ccc(-c3ccc(C(=O)C(=O)N[C@H](CN4CCCC4)[C@H](O)c4cc(F)c5c(c4)OCCO5)cc3)cc2nn1C [Example 342, 2-(4-(2,3-dimethyl-2H-indazol-6-yl)phenyl)-N-((1R,2R)-1-(8-fluoro-2,3-dihydrobenzo[b][1,4]dioxin-6-yl)-1-hydroxy-3-(pyrrolidin-1-yl)propan-2-yl)-2-oxoacetamide] | < 50
4 | O=C(N[C@H](CN1CCCC1)[C@H](O)c1ccc(OC2CC2)c(Cl)c1)C(=O)c1ccc(N2CCCC2)cc1 [Example 343, N-((1R,2R)-1-(3-chloro-4-cyclopropoxyphenyl)-1-hydroxy-3-(pyrrolidin-1-yl)propan-2-yl)-2-oxo-2-(4-(pyrrolidin-1-yl)phenyl)acetamide] | < 50
5 | COc1cc([C@@H](O)[C@@H](CN2CCCC2)NC(=O)C(=O)c2ccc(-c3ccc(F)cc3)cc2)cc(F)c1OC(C)C [Example 344, N-((1R,2R)-1-(3-fluoro-4-isopropoxy-5-methoxyphenyl)-1-hydroxy-3-(pyrrolidin-1-yl)propan-2-yl)-2-(4′-fluoro-[1,1′-biphenyl]-4-yl)-2-oxoacetamide] | < 50

Second part, the compound after the results:

Row | IC50 [nM] | Compound
6 | < 50 | CC(C)n1ccc2ccc(-c3ccc(C(=O)C(=O)N[C@H](CN4CCCC4)[C@H](O)c4cc(F)c5c(c4)OCCO5)cc3)cc21 [Example 345, N-((1R,2R)-1-(8-fluoro-2,3-dihydrobenzo[b][1,4]dioxin-6-yl)-1-hydroxy-3-(pyrrolidin-1-yl)propan-2-yl)-2-(4-(1-isopropyl-1H-indol-6-yl)phenyl)-2-oxoacetamide]
7 | < 50 | CC(C)n1ccc2ccc(-c3ccc(C(=O)C(=O)N[C@H](CN4CCCC4)[C@H](O)c4ccc(OC5CC5)c(Cl)c4)cc3)cc21 [Example 346, N-((1R,2R)-1-(3-chloro-4-cyclopropoxyphenyl)-1-hydroxy-3-(pyrrolidin-1-yl)propan-2-yl)-2-(4-(1-isopropyl-1H-indo1-6-yl)phenyl)-2-oxoacetamide]
8 | < 50 | Cc1c2ccc(-c3ccc(C(=O)C(=O)N[C@H](CN4CCCC4)[C@H](O)c4ccc(OC5CC5)c(Cl)c4)cc3)cc2nn1C [Example 347, N-((1R,2R)-1-(3-chloro-4-cyclopropoxyphenyl)-1-hydroxy-3-(pyrrolidin-1-yl)propan-2-yl)-2-(4-(2,3-dimethyl-2H-indazol-6-yl)phenyl)-2-oxoacetamide]
9 | 50 to 5000 | COc1cc([C@@H](O)[C@@H](CN2CCCC2)NC(=O)C(=O)c2cc3ccc(Cl)cc3s2)cc(F)c1OC(C)C [Example 348, 2-(6-chlorobenzo[b]thiophen-2-yl)-N-((1R,2R)-1-(3-fluoro-4-isopropoxy-5-methoxyphenyl)-1-hydroxy-3-(pyrrolidin-1-yl)propan-2-yl)-2-oxoacetamide]
10 | < 50 | O=C(N[C@H](CN1CCCC1)[C@H](O)c1ccc(OC2CC2)c(Cl)c1)C(=O)c1ccc(-c2ccn(C3CC3)n2)cc1 [Example 349, N-((1R,2R)-1-(3-chloro-4-cyclopropoxyphenyl)-1-hydroxy-3-(pyrrolidin-1-yl)propan-2-yl)-2-(4-(1-cyclopropyl-1H-pyrazol-3-yl)phenyl)-2-oxoacetamide]

Reference: patent US10227323B2, “Glucosylceramide synthase inhibitors for the treatment of diseases” (BIOMARIN PHARMACEUTICAL INC., priority 2013, dated 2019)
